Assay results as given in patent US7951802B2, “Use of 7-azaindoles in the inhibition of c-Jun N-terminal kinase” (Eisai R&D Management Co., Ltd., priority 2007, dated 2011).
pIC50: −log10 of the molar value.

Target: JNK3 (Homo sapiens, UniProt P53779)
Experiment: JNK3 SPA assay (phosphorylation of GST-c-Jun)
Type: biochemical
Conditions: 3.33 μM ATP, GST-c-Jun substrate, read-out: IC50 against JNK3
Procedure: JNK1, JNK2, JNK3—SPA Assay
JNK1, JNK2, JNK3—SPA Assay • 1. Compound is dissolved in DMSO to a convenient concentration and this is diluted in 10% DMSO to a five times concentrate of the desired starting concentration (frequently 1:100). • 2. 10 μl of 500 mM EDTA is added to alternative wells of the Opti-plate row, which will receive kinase reaction plus DMSO. This creates the negative control. • 3. For the JNK2 and JNK3 assay, compounds are prepared in six 2-fold dilutions with water and each concentration is tested in duplicate. For the JNK1 assay compounds are prepared in four 5-fold dilutions with water which are tested in triplicate. Controls are treated identically. • 4. 20 μl per well of each compound concentration is transferred to an Opti-plate, in duplicate. • 5. 30 μl (JNK2/3 SPA) or 50 μl (JNK1 SPA) of substrate solution (25 mM HEPES pH 7.5, 10 mM magnesium acetate with 3.33 μM ATP (JNK2/3) or 2 μM ATP (JNK1), approximately 7.5 kBq [γ-^33P] ATP, GST-c-Jun, in water) is added to each well. • 6. 50 μl (JNK2/3 SPA) or 30 μl (JNK1 SPA) of kinase solution (JNK in 25 mM HEPES pH 7.5, 10 mM Mg Acetate) is added to each well.
• 7. The plate is incubated for 30 minutes at room temperature. • 8. 100 μl of bead/stop solution is added to each well (5 mg/ml glutathione-PVT-SPA beads, 40 mM ATP in PBS). • 9. Plates are sealed and incubated for 30 minutes at room temperature, centrifuged for 10 minutes at 2500 g and counted. • 10. The IC50 values are calculated as the concentration of the compound being tested at which the phosphorylation of c-Jun is decreased to 50% of the control value.

Sequence of JNK3 (P53779 whole entry, species assumed): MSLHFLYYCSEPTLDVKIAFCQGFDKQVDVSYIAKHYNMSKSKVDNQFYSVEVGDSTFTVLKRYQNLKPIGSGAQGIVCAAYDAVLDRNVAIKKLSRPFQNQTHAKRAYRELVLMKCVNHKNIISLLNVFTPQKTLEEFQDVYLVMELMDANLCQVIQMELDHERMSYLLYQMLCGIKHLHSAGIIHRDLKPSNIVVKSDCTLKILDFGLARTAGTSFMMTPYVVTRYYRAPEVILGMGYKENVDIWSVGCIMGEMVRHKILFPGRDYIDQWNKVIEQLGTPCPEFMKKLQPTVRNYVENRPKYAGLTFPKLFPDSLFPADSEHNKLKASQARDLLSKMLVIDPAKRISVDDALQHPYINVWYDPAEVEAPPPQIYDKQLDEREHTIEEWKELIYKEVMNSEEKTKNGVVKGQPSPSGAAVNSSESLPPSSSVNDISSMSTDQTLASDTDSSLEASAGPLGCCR

Row | SMILES | pIC50
1 | FC(F)(F)c1csc(-c2c[nH]c3ncc([C@H]4CC[C@H](N5CCOCC5)CC4)cc23)n1 [Compound I-69, 4-((1r,4r)-4-(3-(4-(trifluoromethyl)thiazol-2-yl)-1H-pyrrolo[2,3-b]pyridin-5-yl)cyclohexyl)morpholine] | 6.35
2 | CN1CCC(c2csc(-c3c[nH]c4ncc([C@H]5CC[C@H](N6CCOCC6)CC5)cc34)n2)CC1 [Compound I-78, 4-((1r,4r)-4-(3-(4-(1-methylpiperidin-4-yl)thiazol-2-yl)-1H-pyrrolo[2,3-b]pyridin-5-yl)cyclohexyl)morpholine] | 6.53
3 | O=C(c1nc(-c2c[nH]c3ncc([C@H]4CC[C@@H](N5CCOCC5)CC4)cc23)cs1)N1CCOCC1 [Compound I-31, morpholino(4-(5-((1s,4s)-4-morpholinocyclohexyl)-1H-pyrrolo[2,3-b]pyridin-3-yl)thiazol-2-yl)methanone] | 5.88
4 | Cc1cnc(-c2c[nH]c3ncc([C@H]4CC[C@H](N5CCOCC5)CC4)cc23)s1 [Compound I-62, 4-((1r,4r)-4-(3-(5-methylthiazol-2-yl)-1H-pyrrolo[2,3-b]pyridin-5-yl)cyclohexyl)morpholine] | 6.06
5 | CN1CCCC1c1nc(-c2c[nH]c3ncc([C@H]4CC[C@@H](N5CCOCC5)CC4)cc23)cs1 (stereo partly shown) [Compound I-108, 4-((1s,4s)-4-(3-(2-(1-methylpyrrolidin-2-yl)thiazol-4-yl)-1H-pyrrolo[2,3-b]pyridin-5-yl)cyclohexyl)morpholine] | 5.91
6 | CN1CCC(c2nc(-c3c[nH]c4ncc(C5CCCCC5)cc34)cs2)CC1 [Compound I-11, 5-Cyclohexyl-3-[2-(1-methyl-piperidin-4-yl)-thiazol-4-yl]-1H-pyrrolo[2,3-b]pyridine] | 6.62
7 | c1nc(-c2c[nH]c3ncc(C4CCCCC4)cc23)cs1 [Compound I-49, 4-(5-cyclohexyl-1H-pyrrolo[2,3-b]pyridin-3-yl)thiazole] | 7.05
8 | FC(F)(F)c1csc(-c2c[nH]c3ncc([C@H]4CC[C@@H](N5CCOCC5)CC4)cc23)n1 [Compound I-70, 4-((1s,4s)-4-(3-(4-(trifluoromethyl)thiazol-2-yl)-1H-pyrrolo[2,3-b]pyridin-5-yl)cyclohexyl)morpholine] | 5.96
9 | Cc1nc(-c2c[nH]c3ncc([C@H]4CC[C@@H](N5CCCOCC5)CC4)cc23)cs1 [Compound I-76, 4-((1s,4s)-4-(3-(2-methylthiazol-4-yl)-1H-pyrrolo[2,3-b]pyridin-5-yl)cyclohexyl)-1,4-oxazepane] | < 6.00
10 | CCC1CC=C(c2cnc3[nH]cc(-c4csc(C(=O)N5CCOCC5)n4)c3c2)CC1 (stereo not shown) [Compound I-27, {4-[5-(4-Ethyl-cyclohex-1-enyl)-1H-pyrrolo[2,3-b]pyridin-3-yl]-thiazol-2-yl}-morpholin-4-yl-methanone] | 6.35
11 | CC1CC=C(c2cnc3[nH]cc(-c4csc(C(=O)N5CCN(C)CC5)n4)c3c2)CC1 (stereo not shown) [Compound I-14, {4-[5-(4-Methyl-cyclohex-1-enyl)-1H-pyrrolo[2,3-b]pyridin-3-yl]-thiazol-2-yl}-(4-methyl-piperazin-1-yl)-methanone] | 6.98
12 | CN1CCC(c2nc(-c3c[nH]c4ncc(C5CCC6(CC5)OCCO6)cc34)cs2)CC1 [Compound I-23, 5-(1,4-Dioxa-spiro[4.5]dec-8-yl)-3-[2-(1-methyl-piperidin-4-yl)-thiazol-4-yl]-1H-pyrrolo[2,3-b]pyridine] | 6.14
13 | CN1CCN(C(=O)c2nc(-c3c[nH]c4ncc([C@H]5CC[C@@H](N6CCOCC6)CC5)cc34)cs2)CC1 [Compound I-32, (4-methylpiperazin-1-yl)(4-(5-((1s,4s)-4-morpholinocyclohexyl)-1H-pyrrolo[2,3-b]pyridin-3-yl)thiazol-2-yl)methanone] | 6.02
14 | CC1CCC(c2cnc3[nH]cc(-c4csc(C(=O)N5CCOCC5)n4)c3c2)CC1 (stereo not shown) [Compound I-21, {4-[5-(4-Methyl-cyclohexyl)-1H-pyrrolo[2,3-b]pyridin-3-yl]-thiazol-2-yl}-morpholin-4-yl-methanone] | 6.91
15 | CN1CCC(c2nc(-c3c[nH]c4ncc([C@H]5CC[C@H](N6CCOCC6)CC5)cc34)cs2)CC1 [Compound I-94, 4-((1r,4r)-4-(3-(2-(1-methylpiperidin-4-yl)thiazol-4-yl)-1H-pyrrolo[2,3-b]pyridin-5-yl)cyclohexyl)morpholine] | 6.16
16 | FC(F)(F)c1csc(-c2c[nH]c3ncc([C@H]4CC[C@H](N5CCCC5)CC4)cc23)n1 [Compound I-84, 2-(5-((1r,4r)-4-(pyrrolidin-1-yl)cyclohexyl)-1H-pyrrolo[2,3-b]pyridin-3-yl)-4-(trifluoromethyl)thiazole] | 6.16
17 | CN1CCN(C(=O)c2nc(-c3c[nH]c4ncc(C5=CCCC5)cc34)cs2)CC1 [Compound I-5, [4-(5-Cyclopent-1-enyl-1H-pyrrolo[2,3-b]pyridin-3-yl)-thiazol-2-yl]-(4-methyl-piperazin-1-yl)-methanone] | 7.07
18 | Cc1cnc(-c2c[nH]c3ncc([C@H]4CC[C@H](N5CCCOCC5)CC4)cc23)s1 [Compound I-121, 3-(5-methyl-1,3-thiazol-2-yl)-5-[trans-4-(1,4-oxazepan-4-yl)cyclohexyl]-1H-pyrrolo[2,3-b]pyridine] | 5.84
19 | CN1CCC(c2nc(-c3c[nH]c4ncc([C@H]5CC[C@H](N6CCN(C)CC6)CC5)cc34)cs2)CC1 [Compound I-96, 4-(5-((1r,4r)-4-(4-methylpiperazin-1-yl)cyclohexyl)-1H-pyrrolo[2,3-b]pyridin-3-yl)-2-(1-methylpiperidin-4-yl)thiazole] | 6.64
20 | CN1CCN([C@H]2CC[C@@H](c3cnc4[nH]cc(-c5csc(C6CCCN6C)n5)c4c3)CC2)CC1 (stereo partly shown) [Compound I-110, 4-(5-((1s,4s)-4-(4-methylpiperazin-1-yl)cyclohexyl)-1H-pyrrolo[2,3-b]pyridin-3-yl)-2-(1-methylpyrrolidin-2-yl)thiazole] | < 5.70
21 | CN1CCN(C(=O)c2nc(-c3c[nH]c4ncc(C5=CCC(C)(C)C=C5)cc34)cs2)CC1 [Compound I-17, {4-[5-(4,4-Dimethyl-cyclohexa-1,5-dienyl)-1H-pyrrolo[2,3-b]pyridin-3-yl]-thiazol-2-yl}-(4-methyl-piperazin-1-yl)-methanone] | 7.40
22 | CN1CCN([C@H]2CC[C@H](c3cnc4[nH]cc(-c5nc(C(F)(F)F)cs5)c4c3)CC2)CC1 [Compound I-82, 2-(5-((1r,4r)-4-(4-methylpiperazin-1-yl)cyclohexyl)-1H-pyrrolo[2,3-b]pyridin-3-yl)-4-(trifluoromethyl)thiazole] | 6.57
23 | CCOc1nc(-c2c[nH]c3ncc([C@H]4CC[C@H](N5CCOCC5)CC4)cc23)cs1 [Compound I-63, 4-((1r,4r)-4-(3-(2-ethoxythiazol-4-yl)-1H-pyrrolo[2,3-b]pyridin-5-yl)cyclohexyl)morpholine] | 6.52
24 | CC1CCC(c2cnc3[nH]cc(-c4csc(C(=O)N5CCN(C)CC5)n4)c3c2)CC1 (stereo not shown) [Compound I-22, {4-[5-(4-Methyl-cyclohexyl)-1H-pyrrolo[2,3-b]pyridin-3-yl]-thiazol-2-yl}-(4-methyl-piperazin-1-yl)-methanone] | 7.80
25 | c1csc(-c2c[nH]c3ncc([C@H]4CC[C@H](N5CCCOCC5)CC4)cc23)n1 [Compound I-119, 4-((1r,4r)-4-(3-(thiazol-2-yl)-1H-pyrrolo[2,3-b]pyridin-5-yl)cyclohexyl)-1,4-oxazepane] | 5.98
